# Laboratory results taken from US20220364065A1, “COMPOSITION FOR REMOVING PLURIPOTENT STEM CELLS AND METHOD OF REMOVING PLURIPOTENT STEM CELLS” (NATIONAL UNIVERSITY CORPORATION HOKKAIDO UNIVERSITY, priority 2018, published 2022).
# Entries after “also recorded” stand apart in the source; their conditions may differ.
# Key:
# [1] = test system: mouse neural stem cells (mNSC); experiment: MTT assay, viability of mouse neural stem cells; assay type: cell-based; conditions: 10 μM BRQ, 3 days
# Experimental: (§1) One thousand cells were seeded into each well of a 96-well plate and cultured for 3 days in medium (200 μL/well) supplemented with only DMSO at a final concentration of 0.1% or in medium (200 μL/well) supplemented with each dihydroorotate dehydrogenase (DHODH) inhibitor. The medium used was the appropriate culture solution for each cell as described above.
# (§2) The concentration of each DHODH inhibitor added to the medium was a 2-fold dilution series starting from 200 μM.
# (§3) As a background, a well containing medium only was prepared, and as a control, a well was also prepared in which medium containing Triton X-100 (final concentration 0.2%) was added to the cells.
# (§4) Then, 5 μL of MTT (5 mg/ml, manufactured by Wako) was added to each well, and the cells were incubated at 37° C. for 2 to 3 hours. Then, the medium was replaced with 100 μL of DMSO to lyse the cells, and the absorbance of these cell lysates at a wavelength of 570 nm was measured with a microplate reader (manufactured by Bio-Rad, Benchmark model). In addition, based on the obtained absorbance, the cell viability was calculated by the following formula.
# Cell viability (%)=(absorbance in wells with DHODH inhibitor-absorbance in background)/(absorbance in control-absorbance in background)×100.
# [2] = test system: PA6: mouse bone marrow-derived stromal cells; experiment: MTT assay, viability of PA6 cells; assay type: cell-based; conditions: 10 μM BRQ, 3 days
# Experimental: as §1, §2, §3, §4
# Cell viability (%)=(absorbance in wells with DHODH inhibitor-absorbance in background)/(absorbance in control-absorbance in background)×100. […]
# [3] = test system: mouse neural stem cells and mouse ES cells; experiment: Mixed culture of neural stem cells and ES cells, Nestin/Nanog immunostaining; assay type: cell-based; conditions: 10 μM BRQ, 3 days
# Experimental: (§5) The cells were fixed and immunostained as described in Kondo et al., Genes Dev. 2004, Vol. 18, Issue 23, pp. 2963-72. […] For the culture of mNSCs, PDL+fibronectin-coated ones were used (see Johe KK et al., Genes Dev. 1996, Vol. 10, Issue 24, pp. 3129 to 3140). For the culture of ES cells and iPS cells, gelatin-coated ones were used.
# (§6) For immunostaining, the cells were first washed once with PBS, then fixed by adding 4% paraformaldehyde and incubating for 10 minutes at room temperature. The cells were replaced with PBS containing 0.3% Triton X100 and incubated for 5 minutes at room temperature, then replaced with PBS containing 0.3% Triton X100 and 10% FCS (blocking solution) and incubated for 30 minutes at room temperature. The solution was replaced with primary antibody solution diluted in blocking solution and incubated for 2 hours at room temperature. After washing three times with PBS, secondary antibody and DAPI solution diluted with blocking solution were added and incubated at room temperature for 2 hours. After washing three times with PBS, the cells were sealed with anti-fading agent (manufactured by DAKO, code number: 53023) and observed under a microscope. […] In addition, fluorescence images were acquired with an Axiolmager M1 microscope (manufactured by Carl Zeiss).
# The cells were then analyzed by immunostaining as described above.
# [4] = test system: mouse iPS cells; experiment: Cell proliferation and cell death (BrdU uptake, Ki67, Casp3 immunostaining), iPS cells; assay type: cell-based; conditions: BRQ 2 days
# Experimental: as §5
# as §6, with “Zeiss). […]” for “Zeiss).”
# [5] = test system: mouse iPS cells; experiment: Immunostaining of pluripotent stem cell markers (Sox2, Nanog, Oct4), iPS cells; assay type: cell-based
# Experimental: The cells were fixed and immunostained as described in Kondo et al., Genes Dev. […] For the culture of ES cells and iPS cells, gelatin-coated ones were used.
# For immunostaining, the cells were first washed once with PBS, then fixed by adding 4% paraformaldehyde and incubating for 10 minutes at room temperature. The cells were replaced with PBS containing 0.3% Triton X100 and incubated for 5 minutes at room temperature, then replaced with PBS containing 0.3% Triton X100 and 10% FCS (blocking solution) and incubated for 30 minutes at room temperature. The solution was replaced with primary antibody solution diluted in blocking solution and incubated for 2 hours at room temperature. After washing three times with PBS, secondary antibody and DAPI solution diluted with blocking solution were added and incubated at room temperature for 2 hours. […] Note that the cell nuclei were visualized by contrast staining with DAPI solution (1 μg/mL, manufactured by Dojindo, product code: D523). In addition, fluorescence images were acquired with an Axiolmager M1 microscope (manufactured by Carl Zeiss).
# LMB is a specific inhibitor of CRM1, also known as Exportin 1.
# [6] = test system: mouse ES cells; experiment: Quantitative RT-PCR of Sox2, Oct4, Nanog, ES cells; assay type: cell-based; conditions: 10 μM BRQ, 2 days
# Experimental: (§7) First, total RNA was prepared from cells using the RNeasy kit (manufactured by Qiagen), and cDNA was synthesized using the Transcriptor First Strand cDNA Synthesis Kit (manufactured by Roche Applied Science).
# (§8) Then, the cDNA was used as a template, and Thunderbird Cyber qPCR Mix (manufactured by TOYOBO) and Step One Plus (manufactured by Thermo Fisher Scientific) were used to perform real-time PCR. The reaction conditions were set at 95° C. for 15 seconds and 60° C. for 30 seconds for 40 cycles, and the oligonucleotide primers shown below were used to amplify each target gene.
# (§9) Note that the expression level of each target gene detected in this way was normalized by the relative quantification method (delta delta Ct method) based on the expression level of 18S ribosomal RNA.
# [7] = test system: mouse iPS cells; experiment: Quantitative RT-PCR of Sox2, Oct4, Nanog, iPS cells; assay type: cell-based; conditions: 10 μM BRQ, 2 days
# Experimental: as §7, §8, §9
# [8] = test system: teratomas formed from mouse iPS cells; experiment: Anti-teratoma activity in NOD/SCID mice, iPS cell-derived tumors; assay type: in vivo
# Experimental: For tumors, 10-μm-thick sections were prepared and immunostained using the methods described by Kondo T. and Raff M., EMBO J. 2000; 19(9): 1998-2007, and Takanaga H, et al., Stem Cells. 2009; 27(1): 165-174. The following antibodies were used for this immunostaining.
# TOCRIS) PBS solution was administered daily intraperitoneally to mice bearing subcutaneous tumors. Five days after intraperitoneal administration, the mice were sacrificed to death, and the tumors were removed and photographed for pathological analysis according to the method described in Tsukamoto Y, et al., Stem Cells. 2016; 34(8): 2016-2025.
# Next, sections of these tumors were prepared, immunolabeled for the proliferation marker Ki67, pluripotent stem cell markers (Oct4 and Nanog), and differentiation markers (ATF, βIII tubulin, and SMA), and observed.
# [9] = iPS cells, 2 days, BRQ 10 μM (ZVAD 100 nM where added)
# [10] = mouse iPS cells, 10 μM BRQ, 24 hours
smiles,measurement,setting,value
"Cc1c(-c2ccc(-c3ccccc3F)cc2)nc2ccc(F)cc2c1C(=O)O [BRQ, 6-fluoro-2-(2′-fluoro-1,1′-biphenyl-4-yl)-3-methyl-4-quinoline-sodium carboxylate]","cytotoxic activity / sensitivity (viability, MTT assay)",[1],hyposensitive; also recorded: no significant cytotoxic activity
same,"cytotoxic activity (viability, MTT assay)",[2],no significant cytotoxic activity
same,ES cells (Nanog) in mixed culture,[3]; ES cell medium,lost
same,cytotoxicity to neural stem cells (Nestin) in mixed culture,[3]; mixed with ES cells,no obvious cytotoxicity
same,CASP3 activation (Casp3 immunostaining),[4],strongly activated
same,cell proliferation (BrdU uptake assay),[4],reduced the proliferation
same,Nanog-positive cells,[5]; [9],0%
same,Oct4-positive cells,[5]; [9],0%
same,cells in which expression of Sox2 was not observed,[5]; [10],about 30%
same,inhibition of cell proliferation or cell death,[5]; [10],inhibition of cell proliferation or cell death was already observed
same,subcellular localization of Nanog,"[5]; mouse iPS cells, 10 μM BRQ, 2 days",distributed in the cytoplasm
same,"expression levels of marker genes (Sox2, Oct4, Nanog)",[6],generally decreased
same,"expression levels of marker genes (Sox2, Oct4, Nanog)",[7],generally decreased
same,number of Oct4-positive cells and Nanog-positive cells in tumors,[8]; iPS cell-derived tumors,significantly decreased
same,tumor proliferation,"[8]; iPS cell-derived tumors, BRQ intraperitoneally",suppressed
same,"cells expressing differentiation markers (ATF, βIII tubulin, SMA) in tumors","[8]; iPS cell-derived tumors, BRQ- vs DMSO-treated",similarly contained in both tumors
same,Ki67-positive proliferating cells in tumors,"[8]; iPS cell-derived tumors, compared to DMSO-treated tumors",significantly reduced
same,sizes of teratomas,"[8]; iPS cell-derived, BRQ intraperitoneally (DMSO control 1.37 cm^3)",0.32 cm^3
